According to US20250213556A1, “COMBINATION THERAPY FOR TREATING CANCER” (AstraZeneca AB, priority 2022, published 2025):

What was measured:
LnCAP cells = experiment: Cell proliferation assay and combination benefit calculation, LnCAP; format: cell-based; details: Homo sapiens, monotherapy
Method: (§1) Cell line identification was validated using the CellCheck assay (IDEXX Bioanalytics, Westbrook, ME, USA). All cell lines were validated free of virus Mycoplasma contamination using the MycoSEQ assay (Thermo Fisher Scientific, Waltham, MA, USA) or STAT-Myco assay (IDEXX Bioanalytics). All cell lines were grown RPMI-1640 growth media (Corning 17-105-CV) supplemented with 10% fetal bovine serum (FBS) or, when indicated, 10% charcoal stripped FBS (ThermoFisher Scientific, 12676029) and 2 mM glutamine.
(§2) Cells in 384-well or 96-well plates were dosed using an Echo 555 (LabCyte, San Jose, CA, USA) or using the HP D300e Digital Dispenser (HP Life Science Dispensing), respectively.
(§3) Live cell count pre- and post-treatment (7 days after treatment) was determined using CellTiter-Glo as per manufacturer's instructions (Promega, Madison, WI, USA; G7570).
(§4) Cell viability was determined with the Sytox Green assay as described in Davies 2012 and the AC50 calculated. The HSA (Highest Single Agent) Synergy Score was calculated according to Bernenbaum 1989.
(§5) Using the method of example 1, these ATM-KO cell lines were determined to be sensitive to AZD5305, with an AC50 of 3 nM, in contrast to the parental (or control) LNCAP cell line which is not sensitive to AZD5305 monotherapy, with an AC50 greater than 10 μM.
(§6) The HSA (Highest Single Agent) Synergy Score was calculated according to Bernenbaum 1989 when the AZD5305 and enzalutamide were used in combination.

C4-2 cells = experiment: Cell proliferation assay and combination benefit calculation, C4-2; format: cell-based; details: 168 h, monotherapy, 7 days after treatment
Method: as §1, §2, §3, §4

VCAP cells = experiment: Cell proliferation assay and combination benefit calculation, VCAP; format: cell-based; details: Homo sapiens, 168 h, monotherapy, 7 days after treatment
Method: as §1, §2, §3, §4

CWR22Pc-R1-AD1 cells = experiment: Cell proliferation assay and combination benefit calculation, CWR22Pc-R1-AD1; format: cell-based; details: 168 h, monotherapy, 7 days after treatment
Method: as §1, §2, §3, §4

ATM-KO LNCAP cells = experiment: Cell proliferation assay and synergy in isogenic ATM-KO LNCAP cells; format: cell-based; details: monotherapy; for AC50: Homo sapiens, LNCaP
Method: as §2, §3, §4
An isogenic ATM-KO model in LNCAP cells was generated with CRISPR-Cas9 technology.
as §5, §6

LNCaP tumours = experiment: In vivo pre-clinical model LNCaP (subcutaneous xenograft); details: 42 days, NOD SCID mice, vs vehicle
Method: LNCaP cells (1×10^7 cells 1:1 in Matrigel) were implanted subcutaneously onto the flank of male NOD SCID mice (aged 5-8 weeks weighing approximately 25-30 g, supplied by Charles River) using a 23-gauge needle.
The mice were dosed for 42 days, with the dose calculated for individual animals on day of dosing, and with a […] dosing volume.
Tumours were measured ×3 per week using digital calipers. The length and width of the tumour will be measured and volume calculated using the following formula: […]
The bodyweight of all mice in the study was measured and recorded 3 times per week; this information was used to calculate precise dosing for each animal.

C901 tumours = experiment: In vivo pre-clinical model C901 patient derived xenograft (PDX); details: 21 days, NMRI Nude mice, vs vehicle
Method: C901 patient derived xenograft (PDX) model was engrafted subcutaneously onto the flank of donor mice and monitored once a week until ethical size (1000-2000 mm^3). When donor tumours reached ethical size, PDX fragments measuring approximately 20 mm^3 were engrafted in the study mice (male NMRI Nude mice, aged 6-9 weeks, supplied by Janvier labs).
The mice were dosed for 21 days, with the dose calculated for individual animals on day of dosing, and with a […] dosing volume.
Tumours were measured ×2 per week using digital calipers. The length and width of the tumour will be measured and volume calculated using the following formula: […]
The bodyweight of all mice in the study was measured and recorded 2 times per week; this information was used to calculate precise dosing for each animal.

[1] = 168 h, LnCAP, 7 days after treatment
[2] = LnCAP parental (control), Example 2

Compound	AC50 (LnCAP cells; [1]) [µM]	AC50 (LnCAP cells; [2]) [µM]	AC50 (C4-2 cells) [µM]	AC50 (VCAP cells) [µM]	AC50 (CWR22Pc-R1-AD1 cells) [µM]	AC50 (ATM-KO LNCAP cells; ATM-KO cell lines (clone.1 and clone.2)) [µM]	tumour growth inhibition (TGI) (LNCaP tumours; AZD5305 1 mg/kg QD)	TGI (C901 tumours; AZD5305 1 mg/kg QD) [%]	AC50 (ATM-KO LNCAP cells; LnAP-ATM-KO-CL.1) [µM]	Sensitivity of the cell lines (ATM-KO LNCAP cells; the cell lines of Example 2 (LNCAP parental and ATM-KO))	tumour growth inhibition (TGI) (LNCaP tumours; enzalutamide 4 mg/kg QD)	TGI (C901 tumours; enzalutamide 60 mg/kg QD) [%]
CCc1cc2ncc(CN3CCN(c4ccc(C(=O)NC)nc4)CC3)cc2[nH]c1=O [AZD5305, 5-{4-[(7-ethyl-6-oxo-5,6-dihydro-1,5-naphthyridin-3-yl)methyl]piperazin-1-yl}-N-methylpyridine-2-carboxamide]	12	> 10	20	1.6	0.0316	0.003	no or minimal (4%)	90	–	–	–	–
CNC(=O)c1ccc(N2C(=S)N(c3ccc(C#N)c(C(F)(F)F)c3)C(=O)C2(C)C)cc1F [Enzalutamide, 4-(3-(4-cyano-3-(trifluoromethyl)phenyl)-5,5-dimethyl-4-oxo-2-thioxoimidazolidin-1-yl)-2-fluoro-N-methylbenzamide]	1.41	> 10	8.33	2.94	9.59	–	–	–	> 10	No sensitivity could be measured	no or minimal (4%)	92
